The structures appear in SMILES notation. ≈ marks a conversion by molar mass, not a printed value. Counter-ions that a name gives are not always drawn. Like-named read-outs stand apart in the source and are kept apart here.

These results are taken from patent US20070129344A1, “Bicyclic 6-alkylidene-penem beta-lactamase inhibitors and beta-lactam antibiotic combination: a broad spectrum antibiotic” (priority 2005, published 2007).

In test [1] the target is class A β-lactamase TEM-1 (Escherichia coli, UniProt P62593). In words: β-Lactamase inhibition IC50 (nitrocefin, spectrophotometric). Type of test: biochemical, E. coli. As to conditions: enzyme 4.3 nM, 10 min preincubation at 25° C. As to the method:
(§1) β-Lactamase inhibitory activity of the penem inhibitors was determined spectrophotometrically as described by Bush et al., [Bush, K., Macalintal, C., Rasmussen, B. A., Lee, V. and Yang, Y. Antimicrobial Agents and Chemotherapy 1993, 37, 851]. Homogeneously purified class A β-lactamases TEM-1 from E. coli and Imi-1 from Enterobacter cloacae, class B enzyme CcrA from Bacteroides fragilis and class C enzyme AmpC from Enterobacter cloacae were employed in the assay. The enzyme concentrations for TEM-1, Imi-1, CcrA and AmpC were 4.3, 7.1, 1.2 and 2.1 nM, respectively. A wide range of inhibitor concentrations were prepared in 50 mM PO4, pH 7.0 to include the possible IC50 values. The substrate used to initiate the enzyme reaction was nitrocefin at 50 μg/ml in the same buffer as the inhibitor. Initially the enzyme and inhibitor (20 μl each) were preincubated for 10 minutes at 25° C. prior to the addition of 160 μl volume of nitrocefin. Initial rates of hydrolysis were monitored for 5 minutes at 495 nm using a Molecular Devices Spectra Max 250 with kinetic protocol of SoftMax Program. Readings from the Spectra Max 250 were exported and transferred to Microsoft Excel. The percent of inhibition of each inhibitor concentration was calculated based on the control enzyme activity. The inhibitor concentration that caused a 50% reduction in the enzymatic activity (IC50) was determined graphically.

Test [2] has as its target class A β-lactamase Imi-1 (Enterobacter cloacae, UniProt Q46991). The test is described as above. It counts as biochemical. As to the method:
as §1

A further test deals with class B enzyme CcrA (Bacteroides fragilis, UniProt P25910). The test is described as above. It counts as biochemical. As to conditions: enzyme 1.2 nM, 10 min preincubation at 25° C., read-out: IC50 Class B Ccr. The protocol:
as §1

For a further test, the target named is class C enzyme AmpC (Enterobacter cloacae, UniProt P05364). The test is described as above. It counts as biochemical. The protocol:
as §1

The test system of test [3] is E. coli LSU 80-8 GC 6265 TEM-1. In words: MIC microbroth dilution; β-lactamase class A. Type of test: cell-based. As to conditions: E. coli GC 6265; Cefepime + 4 ug/ml Compound 1. Summed up:
(§2)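 NCCLS microbroth dilution; MHBII; 35° C., ambient air, 18-22 hours.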

Test [4] concerns E. coli GC 2021 (TEM-10 + pl 6.3). In words: MIC microbroth dilution; β-lactamase class A (ESBL). It counts as cell-based. As to conditions: Cefepime + 4 ug/ml Compound 1. In a few lines:
(§3)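 Following NCCLS standard M7-A5, antibiotics were tested by microbroth dilution in MHBII; plates sat 18-22 hours at 35° C. under ambient atmosphere.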

The next test concerns K. pn GC 1827 (TEM-3). Described as above. As to conditions: Cefepime + 4 ug/ml Compound 1. It counts as cell-based, K. pneumoniae. The protocol: (§4) The in vitro activities of the antibiotics were determined by the microbroth dilution method as recommended by the National Committee for Clinical Laboratory Standards (NCCLS). (NCCLS. 2000. Methods for Dilution Antimicrobial Susceptibility Tests for Bacteria That Grow Aerobically; Approved Standards: M7-A5, vol. 19. National Committee for Clinical Laboratory Standards, Villanova, Pa.). Mueller-Hinton II broth (MHBII)(BBL Cockeysville, Md.), was used for the testing procedure. […]. The plates were incubated for 18-22 hours at 35° C. in ambient air.

In the next test the test system is E. coli GC 2253 (IRT-2). In words: MIC microbroth dilution; β-lactamase class A (IRT). Type of test: cell-based. The protocol: as §4
A further test relates to E. coli GC 2906 (Imi-1). In words: MIC microbroth dilution; β-lactamase class A (Cb'ase). Type of test: cell-based. The protocol: as §4
Test [5] relates to C. freundii GC 4187 Stably derepressed AmpC. The experiment in a line: MIC microbroth dilution; β-lactamase class C. It counts as cell-based. In a few lines:
as §2

Test [6] deals with C. freundii PT 1499 Stably derepressed AmpC. The experiment in a line: MIC microbroth dilution; β-lactamase class C. Type of test: cell-based. In a few lines:
as §3

Another test has as its system E. coli GC 2905 (P99). The experiment in a line: MIC microbroth dilution; β-lactamase class C. It counts as cell-based. As to conditions: Cefepime + 4 ug/ml Compound 1. In a few lines:
as §3

Test [7] relates to P. aeruginosa GC 1764 AmpC-constitutive. The experiment in a line: MIC microbroth dilution; β-lactamase class C. It counts as cell-based. As to conditions: Cefepime + 4 ug/ml Compound 1. Summed up: as §3
Test [8] deals with P. aeruginosa GC 4161 Stably derepressed AmpC. In words: MIC microbroth dilution; β-lactamase class C. Type of test: cell-based. Summed up: as §2
Test [9] relates to S. marcescens GC 4132 Stably derepressed AmpC. In words: MIC microbroth dilution; β-lactamase class C. Type of test: cell-based. Summed up:
as §2

The test system of test [10] is S. marcescens GC 4150 Stably derepressed AmpC. In words: MIC microbroth dilution; β-lactamase class C. Type of test: cell-based. As to conditions: Cefepime + 4 ug/ml Compound 1. Summed up:
as §3

For test [11], the system named is S. marcescens PT 488 Stably derepressed AmpC. The experiment in a line: MIC microbroth dilution; β-lactamase class C. It counts as cell-based. As to conditions: Cefepime + 4 ug/ml Compound 1. Summed up: as §3
The subject of test [12] is S. marcescens PT 6003 Stably derepressed AmpC. In words: MIC microbroth dilution; β-lactamase class C. It counts as cell-based. As to conditions: Cefepime + 4 ug/ml Compound 1. In a few lines: as §3
The subject of test [13] is E. cloacae GC 1713 AmpC-constitutive. Type of test: cell-based. As to conditions: Cefepime + 4 ug/ml Compound 1. The protocol:
(§5) The in vitro activities of the antibiotics were determined by the microbroth dilution method as recommended by the National Committee for Clinical Laboratory Standards (NCCLS). (NCCLS. 2000. Methods for Dilution Antimicrobial Susceptibility Tests for Bacteria That Grow Aerobically; Approved Standards: M7-A5, vol. 19. National Committee for Clinical Laboratory Standards, Villanova, Pa.). Mueller-Hinton II broth (MHBII)(BBL Cockeysville, Md.), was used for the testing procedure. […] The plates were incubated for 18-22 hours at 35° C. in ambient air.

The test system of test [14] is E. cloacae GC 7055 TEM-1, SHV-12 Amp C inducable. It counts as cell-based. As to conditions: Cefepime + 4 ug/ml Compound 1. As to the method: as §5
For test [15], the system named is E. cloacae PT 197 Stably derepressed AmpC. Type of test: cell-based. As to conditions: Cefepime + 4 ug/ml Compound 1. The protocol: as §5
Test [16] relates to P. aeruginosa PT 9025 PTZ-R. The experiment in a line: MIC microbroth dilution. It counts as cell-based. As to the method: as §4
Test [17] concerns E. coli GC 2883 (OXA-10/PSE-2). The experiment in a line: MIC microbroth dilution; β-lactamase class D. It counts as cell-based. The protocol:
as §4

[18] abbreviates: Escherichia coli, Cefepime alone, control of Compound 1 test.
[19] abbreviates: Citrobacter freundii, Cefepime alone, control of Compound 1 test.
Where [20] appears, read: Cefepime alone, control of Compound 2 test.

Chain of class A β-lactamase TEM-1 (P62593 24-286 limits assumed): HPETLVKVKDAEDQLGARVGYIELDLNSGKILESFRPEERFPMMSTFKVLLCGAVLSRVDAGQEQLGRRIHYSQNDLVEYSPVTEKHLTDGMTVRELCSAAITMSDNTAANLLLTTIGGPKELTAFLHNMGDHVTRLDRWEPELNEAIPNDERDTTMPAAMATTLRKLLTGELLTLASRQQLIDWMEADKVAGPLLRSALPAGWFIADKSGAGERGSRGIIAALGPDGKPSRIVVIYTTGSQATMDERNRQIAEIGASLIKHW
Chain of class B enzyme CcrA (P25910 19-249): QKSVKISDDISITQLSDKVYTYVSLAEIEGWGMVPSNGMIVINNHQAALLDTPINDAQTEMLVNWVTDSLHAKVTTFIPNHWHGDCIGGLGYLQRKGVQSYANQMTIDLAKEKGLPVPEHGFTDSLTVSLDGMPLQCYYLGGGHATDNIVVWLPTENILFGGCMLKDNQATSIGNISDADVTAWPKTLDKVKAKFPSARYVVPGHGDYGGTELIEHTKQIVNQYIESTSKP
Chain of class C enzyme AmpC (P05364 21-381): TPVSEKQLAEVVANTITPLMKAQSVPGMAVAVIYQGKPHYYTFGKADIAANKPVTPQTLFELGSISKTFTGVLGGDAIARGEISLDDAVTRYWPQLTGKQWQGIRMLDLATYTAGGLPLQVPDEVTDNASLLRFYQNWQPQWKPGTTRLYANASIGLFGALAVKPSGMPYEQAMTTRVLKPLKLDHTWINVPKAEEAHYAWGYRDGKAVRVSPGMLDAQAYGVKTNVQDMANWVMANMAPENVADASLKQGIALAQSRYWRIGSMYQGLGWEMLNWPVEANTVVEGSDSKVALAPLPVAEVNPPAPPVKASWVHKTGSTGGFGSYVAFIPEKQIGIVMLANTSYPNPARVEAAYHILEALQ
Chain of class A β-lactamase Imi-1 (Q46991 entry or part of it): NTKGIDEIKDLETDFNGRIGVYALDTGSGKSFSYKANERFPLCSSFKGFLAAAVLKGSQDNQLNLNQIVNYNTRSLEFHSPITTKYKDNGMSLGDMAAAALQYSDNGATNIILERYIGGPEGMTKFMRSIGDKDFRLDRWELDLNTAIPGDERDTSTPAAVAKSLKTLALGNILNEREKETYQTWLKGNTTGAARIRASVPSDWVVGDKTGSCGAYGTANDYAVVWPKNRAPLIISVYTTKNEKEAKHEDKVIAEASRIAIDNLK

In the case of `O=C([O-])C1=CS[C@@H]2/C(=C\c3cn4c(n3)CCC4)C(=O)N12.[Na+]` [Compound 1, (5R), (6Z)-6-(6,7-Dihydro-5H-pyrrolo[1,2-a]imidazol-2-ylmethylene)-7-oxo-4-thia-1-aza-bicyclo[3.2.0]hept-2-ene-2-carboxylic Acid, Sodium Salt], the IC50 in test [1] is 0.4 nM; in test [2] (enzyme 7.1 nM, 10 min preincubation at 25° C., nitrocefin, read-out: IC50 Class A Imi) it was 7.8 nM; at class B enzyme CcrA, 66 nM; on class C enzyme AmpC (enzyme 2.1 nM, 10 min preincubation at 25° C., nitrocefin, read-out: IC50 Class C AmpC) it was 4.8 nM. The minimal inhibitory concentration (MIC) in test [3] was determined as 0.03 µg/mL; in test [4], 0.12 µg/mL; with K. pn GC 1827 (TEM-3) it was 0.03 µg/mL; in the test on E. coli GC 2253 (IRT-2) (Cefepime + 4 ug/ml Compound 1), 0.03 µg/mL; in the test with E. coli GC 2906 (Imi-1) (Cefepime + 4 ug/ml Compound 1), 0.06 µg/mL; in test [5] (Cefepime + 4 ug/ml Compound 1), 0.12 µg/mL. Moreover, the minimum inhibitory concentration (MIC) in test [6] (Cefepime + 4 ug/ml Compound 1) was 0.03 µg/mL; with E. coli GC 2905 (P99), 0.06 µg/mL; in test [7], 0.50 µg/mL; in test [8] (P. aeruginosa GC 4161, Cefepime + 4 ug/ml Compound 1) it was 16 µg/mL; in [9] (Cefepime + 4 ug/ml Compound 1), 0.12 µg/mL; in test [10], 0.25 µg/mL. Besides, the MIC in test [11] was determined as 0.06 µg/mL; in [12], 0.25 µg/mL; in test [13], 0.12 µg/mL; in test [14] it was 0.06 µg/mL; in [15] it was 0.50 µg/mL; in test [16] (P. aeruginosa PT 9025, Cefepime + 4 ug/ml Compound 1), 16 µg/mL. In [17] (Cefepime + 4 ug/ml Compound 1), the MIC was determined as 0.06 µg/mL.

As for `CO/N=C(\C(=O)N[C@@H]1C(=O)N2C(C(=O)[O-])=C(C[N+]3(C)CCCC3)CS[C@H]12)c1csc(N)n1` [Cefepime, reference compound], the MIC with E. coli GC 2253 (IRT-2) (setting [18]) is 0.03 µg/mL (≈ 0.0624 µM); in the test with E. coli GC 2906 (Imi-1) (setting [18]) it was 0.5 µg/mL (≈ 1.04 µM); in test [5] (setting [19]) it was 2 µg/mL (≈ 4.16 µM); in [6] (setting [19]), 4 µg/mL (≈ 8.32 µM); in test [6] (Citrobacter freundii, Cefepime alone, control of Compound 2 test), 2 µg/mL (≈ 4.16 µM); in test [8] (P. aeruginosa GC 4161, Cefepime alone, control of Compound 2 test) it was over 16 µg/mL. The MIC in test [8] (Pseudomonas aeruginosa) is over 16 µg/mL; in test [9] (setting [20]), 0.50 µg/mL (≈ 1.04 µM); in [16] (P. aeruginosa PT 9025, Cefepime alone, control of Compound 2 test), over 16 µg/mL; in test [16] (Pseudomonas aeruginosa, PT9025PTZR) it was over 16 µg/mL; in test [17] (setting [20]), 0.06 µg/mL (≈ 0.125 µM).

Take `O=C(O)C1=CS[C@@H]2/C(=C\c3cn4c(n3)COCC4)C(=O)N12` [Compound 2, (5R), (6Z)-6-(5,6-Dihydro-8H-imidazo[2.1-c][1,4]oxazin-2-ylmethylene)-7-oxo-4-thia-1-azabicyclo[3.2.0]hept-2-ene-2-carboxylic Acid, Sodium Salt]: the IC50 in [1] was found to be 0.6 nM; in test [2], 20 nM; at class B enzyme CcrA it was 230 nM; against class C enzyme AmpC, 2.2 nM.
